This is an account of results in US11718614B2, “Compounds and methods for treatment of hedgehog pathway associated conditions” (Suzhou Mednes Pharma Tech Co., Ltd., priority 2018, dated 2023).

The first test has as its system tumor cells from medulloblastoma developed from mice with deficiency in Patched1 gene. Kind of test: MB assay: survival of medulloblastoma tumor cells by MTT after 48 hours. The format is cell-based. Particulars: Mus musculus, tumor cells treated 48 hours, cell survival by MTT. The method, then: To test the effect of the novel compounds on the proliferation of tumor cell, we isolated tumor cells from medulloblastoma developed from mice with deficiency in Patched1 gene. Tumor cells were plated in vitro as previously described, and treated with various concentration of compounds for 48 hours. Tumor cells cultured were then harvested to measure cell survival based on MTT assay. The IC50 value for each compound was calculated using Prism the statistical software.
Table 1 below summarizes the IC50 data obtained using MB assay for exemplary compounds of the invention. IC50 values are shown as A, B, C, or D. A represents IC50 value between 1.0 μM and 5.0 μM; B is between 5.0 μM and 10 μM; C is between 10 μM to 20 μM; and D indicates greater than 20 μM.
For orientation: IC50 means the concentration needed to halve the response being measured. Low readings indicate higher potency, high ones lower potency. The molecule `CC(C)c1ccc2c(c1)c(C(=O)C1CCC1)c(CC(C)(C)C(=O)O)n2Cc1ccc(Cl)cc1` [Compound 1, 3-(1-(4-chlorobenzyl)-3-(cyclobutanecarbonyl)-5-isopropyl-1H-indol-2-yl)-2,2-dimethylpropanoic acid] registered an IC50 of 1 to 5 µM.

`CCOC(=O)C(C)(C)Cc1c(C(=O)C2CCC2)c2cc(C(C)C)ccc2n1Cc1ccc(Cl)cc1` [Compound 2, ethyl 3-(1-(4-chlorobenzyl)-3-(cyclobutanecarbonyl)-5-isopropyl-1H-indol-2-yl)-2,2-dimethylpropanoate] came in with an IC50 greater than 20 µM.

For `CC(C)c1ccc2c(c1)c(SCC(C)(C)C)c(CC(C)(C)C(=O)O)n2Cc1ccc(Cl)cc1` [Compound 3], the concentration for half-maximal inhibition (IC50) is 1 to 5 µM.

In turn, `CCOC(=O)C(C)(C)Cc1c(SCC(C)(C)C)c2cc(C(C)C)ccc2n1Cc1ccc(Cl)cc1` [Compound 4, ethyl 3-(1-(4-chlorobenzyl)-5-isopropyl-3-(neopentylthio)-1H-indol-2-yl)-2,2-dimethylpropanoate] showed an IC50 greater than 20 µM.

In the case of `CC(C)c1ccc2c(c1)c([S+]([O-])CC(C)(C)C)c(CC(C)(C)C(=O)O)n2Cc1ccc(Cl)cc1` (stereo not drawn) [Compound 5], the IC50 was greater than 20 µM.

In turn, `CCOC(=O)C(C)(C)Cc1c([S+]([O-])CC(C)(C)C)c2cc(C(C)C)ccc2n1Cc1ccc(Cl)cc1` (stereo not drawn) [Compound 6] registered an IC50 of 10 to 20 µM.

For the molecule `CC(C)c1ccc2c(c1)c(S(=O)(=O)CC(C)(C)C)c(CC(C)(C)C(=O)O)n2Cc1ccc(Cl)cc1` [Compound 7], the IC50 was in the range of 10 to 20 µM.

In turn, `CCOC(=O)C(C)(C)Cc1c(S(=O)(=O)CC(C)(C)C)c2cc(C(C)C)ccc2n1Cc1ccc(Cl)cc1` [Compound 8] showed a concentration for half-maximal inhibition (IC50) of 10 to 20 µM.

Molecule `CC(C)C(=O)c1c(CC(C)(C)C(=O)O)n(Cc2ccc(Cl)cc2)c2ccc(C(C)C)cc12` [Compound 9, 3-(1-(4-chlorobenzyl)-3-isobutyryl-5-isopropyl-1H-indol-2-yl)-2,2-dimethylpropanoic Acid] came in with an IC50 of 10 to 20 µM.

For `CCOC(=O)C(C)(C)Cc1c(C(=O)C(C)C)c2cc(C(C)C)ccc2n1Cc1ccc(Cl)cc1` [Compound 10, Ethyl 3-(1-(4-chlorobenzyl)-3-isobutyryl-5-isopropyl-1H-indol-2-yl)-2,2-dimethylpropanoate], the concentration for half-maximal inhibition (IC50) was greater than 20 µM.

For the molecule `CC(C)c1ccc2c(c1)c(SC(C)(C)C)c(CCC(=O)O)n2Cc1ccc(Cl)cc1` [Compound 11, 3-(3-(tert-butylthio)-1-(4-chlorobenzyl)-5-isopropyl-1H-indol-2-yl) Propanoic Acid], the IC50 lay in the range of 5 to 10 µM.

Take `CCOC(=O)CCc1c(SC(C)(C)C)c2cc(C(C)C)ccc2n1Cc1ccc(Cl)cc1` [Compound 12]: the half-inhibitory concentration (IC50) was greater than 20 µM.

With `CC(C)c1ccc2c(c1)c(SC(C)(C)C)c(CC(=O)O)n2Cc1ccc(Cl)cc1` [Compound 13, 2-(3-(tert-butylthio)-1-(4-chlorobenzyl)-5-isopropyl-1H-indol-2-yl) Acetic Acid], the IC50 lay within 10 to 20 µM.

Molecule `COC(=O)Cc1c(SC(C)(C)C)c2cc(C(C)C)ccc2n1Cc1ccc(Cl)cc1` [Compound 14, methyl 2-(3-(tert-butylthio)-1-(4-chlorobenzyl)-5-isopropyl-1H-indol-2-yl)acetate] had a concentration for half-maximal inhibition (IC50) greater than 20 µM.

`CC(C)c1ccc2c(c1)c(SC(C)(C)C)c(CC(C)(C)C)n2Cc1ccc(Cl)cc1` [Compound 15] showed a 50% inhibitory concentration (IC50) greater than 20 µM.

Take `CC(C)c1cnc2c(c1)c(C(=O)C1CCC1)c(CC(C)(C)C(=O)O)n2Cc1ccc(Cl)cc1` [Compound 16, 3-(1-(4-chlorobenzyl)-3-(cyclobutanecarbonyl)-5-isopropyl-1H-pyrrolo-[2,3-b]pyridin-2-yl)-2,2-dimethylpropanoic acid]: the IC50 was in the range of 10 to 20 µM.

`COc1cnc2c(c1)c(SC(C)(C)C)c(CC(C)(C)C(=O)O)n2Cc1ccc(Cl)cc1` [Compound 17] registered a half-inhibitory concentration (IC50) greater than 20 µM.

Consider `CCOC(=O)C(C)(C)Cc1c(SC(C)(C)C)c2cc(OC)cnc2n1Cc1ccc(Cl)cc1` [Compound 18], for which the half-maximal inhibitory concentration (IC50) was greater than 20 µM.

The molecule `CC(C)(C)CC(=O)c1c(CC(C)(C)C(=O)O)n(Cc2ccc(Cl)cc2)c2ccc(O)cc12` [Compound 19] returned an IC50 greater than 20 µM.

For `CC(C)(C)CCc1c(CC(C)(C)CO)n(Cc2ccc(Cl)cc2)c2ccc(O)cc12` [Compound 20], the concentration for half-maximal inhibition (IC50) fell in the range of 1 to 5 µM.

`COC(=O)C(C)(C)Cc1c(C(=O)CC(C)(C)C)c2cc(OC)ccc2n1Cc1ccc(Cl)cc1` [Compound 21]: the 50% inhibitory concentration (IC50) is greater than 20 µM.

In turn, `COc1ccc2c(c1)c(C(=O)CC(C)(C)C)c(CC(C)(C)C(=O)O)n2Cc1ccc(Cl)cc1` [Compound 22] had an IC50 greater than 20 µM.

`COc1ccc2c(c1)c(C(=O)CC(C)(C)C)c(CC(C)(C)CO)n2Cc1ccc(Cl)cc1` [Compound 23]: the IC50 lay within 5 to 10 µM.

Consider `COC(=O)C(C)(C)Cc1c(C(=O)CC(C)(C)C)c2cc(O)ccc2n1Cc1ccc(Cl)cc1` [Compound 24], for which the IC50 lay in the range of 1 to 5 µM.

Molecule `CC(C)(C)CC(=O)c1c(CC(C)(C)CO)n(Cc2ccc(Cl)cc2)c2ccc(O)cc12` [Compound 25] registered an IC50 greater than 20 µM.

On to `COc1ccc2c(c1)c(CCC(C)(C)C)c(CC(C)(C)CO)n2Cc1ccc(Cl)cc1` [Compound 26], for which the concentration for half-maximal inhibition (IC50) was in the range of 1 to 5 µM.

Molecule `CC(C)c1ccc2c(C(=O)c3ccc(Cl)cc3)c(CC(C)(C)C(=O)O)n(CC3CCC3)c2c1` [Compound 27] came in with an IC50 of 5 to 10 µM.

Take `COC(=O)C(C)(C)Cc1c(C(=O)c2ccc(Cl)cc2)c2ccc(C(C)C)cc2n1CC1CCC1` [Compound 28, methyl 3-(3-(4-chlorobenzoyl)-1-(cyclobutylmethyl)-6-isopropyl-1H-indol-2-yl)-2,2-dimethylpropanoate]: the IC50 was greater than 20 µM.

In turn, `CC(C)(Cc1c(C(=O)c2ccc(Cl)cc2)c2ccc(O)cc2n1CC1CCC1)C(=O)O` [Compound 29, 3-(3-(4-chlorobenzoyl)-1-(cyclobutylmethyl)-6-hydroxy-1H-indol-2-yl)-2,2-dimethylpropanoic Acid] showed an IC50 greater than 20 µM.

Molecule `CCOC(=O)C(C)(C)Cc1c(C(=O)c2ccc(Cl)cc2)c2ccc(O)cc2n1CC1CCC1` [Compound 30, Ethyl 3-(3-(4-chlorobenzoyl)-1-(cyclobutylmethyl)-6-hydroxy-1H-indol-2-yl)-2,2-dimethylpropanoate] came in with a concentration for half-maximal inhibition (IC50) greater than 20 µM.

`COc1ccc2c(c1)c(SC(C)(C)C)c(CC(C)(C)c1nc(C)co1)n2Cc1ccc(Cl)cc1` [Compound 31] returned a 50% inhibitory concentration (IC50) greater than 20 µM.

Molecule `Cc1coc(C(C)(C)Cc2c(SC(C)(C)C)c3cc(O)ccc3n2Cc2ccc(Cl)cc2)n1` [Compound 32] had a concentration for half-maximal inhibition (IC50) of 1 to 5 µM.

Turning to `CCc1noc(C(C)(C)Cc2c(SC(C)(C)C)c3cc(OC)ccc3n2Cc2ccc(Cl)cc2)n1` [Compound 33], the 50% inhibitory concentration (IC50) is greater than 20 µM.

The molecule `CCc1noc(C(C)(C)Cc2c(SC(C)(C)C)c3cc(O)ccc3n2Cc2ccc(Cl)cc2)n1` [Compound 34] displayed an IC50 of 5 to 10 µM.

As for `COc1ccc2c(c1)c(SC(C)(C)C)c(CC(C)(C)c1nnnn1C)n2Cc1ccc(Cl)cc1` [Compound 35, 3-(tert-butylthio)-1-(4-chlorobenzyl)-5-methoxy-2-(2-methyl-2-(1-methyl-1H-tetrazol-5-yl)propyl)-1H-indole], the 50% inhibitory concentration (IC50) was in the range of 5 to 10 µM.

The test is the same for the next values; noted with them: tumor cells treated 48 hours, cell survival by MTT.
With “3-(tert-butylthio)-1-(4-chlorobenzyl)-2-(2-methyl-2-(2-methyl-2H-tetrazol-5-yl)propyl)-1H-indol-5-ol [Compound 38]”, the IC50 was in the range of 1 to 5 µM.
